Measurements taken from paper doi:10.1101/2024.08.19.608619, “Discovery of potent SARS-CoV-2 nsp3 macrodomain inhibitors uncovers lack of translation to cellular antiviral response” (bioRxiv, 2024).
Read-outs that look alike come from different tables or passages of the source.

Experiments:
SARS-CoV-2 nsp3-mac1 [1] = biological target: T1, SARS-CoV-2 nsp3-mac1 (Severe acute respiratory syndrome coronavirus 2, UniProt P0DTD1); assay: biochemical; format: biochemical; conditions: SARS-CoV-2 nsp3 macrodomain TR-FRET single point, concentration 50.0 uM
SARS-CoV-2 nsp3-mac1 [2] = biological target: T1, SARS-CoV-2 nsp3-mac1; assay: biochemical; parameters: SARS-CoV-2 nsp3 macrodomain TR-FRET single point, per cent inhibition, n=2

SMILES | perc_inhibition_mean (SARS-CoV-2 nsp3-mac1 [1]) | other results
Cc1nc2cnccn2c1NC(=O)c1cc(-c2ccco2)[nH]n1 [ASAP-0000101] | -3.884% | inhibition at 50 µM (SARS-CoV-2 nsp3-mac1 [2]; read-out: perc_inhibition_mean, batch_name=ASAP-0000101-001): -3.88%
O=C(Cc1ccon1)Nc1ncnc2[nH]cnc12 [ASAP-0000102] | -1.615% | inhibition at 50 µM (SARS-CoV-2 nsp3-mac1 [2]; read-out: perc_inhibition_mean, batch_name=ASAP-0000102-001): -1.61%
Cc1ncc(NCc2ncn(C)c2Cl)cc1C(N)=O [ASAP-0000103] | 2.409% | inhibition at 50 µM (SARS-CoV-2 nsp3-mac1 [2]; read-out: perc_inhibition_mean, batch_name=ASAP-0000103-001): 2.41%
Cc1ncc(NCc2cc3n(n2)CCOC3)cc1C(N)=O [ASAP-0000104] | 0.46% | inhibition at 50 µM (SARS-CoV-2 nsp3-mac1 [2]; read-out: perc_inhibition_mean, batch_name=ASAP-0000104-001): 0.46%
O=S(=O)(NC[C@@H]1CCCCO1)c1cn2c(n1)CCCC2 [ASAP-0000105] | -5.386% | inhibition at 50 µM (SARS-CoV-2 nsp3-mac1 [2]; read-out: perc_inhibition_mean, batch_name=ASAP-0000105-001): -5.39%
Cc1cc(NCc2csc(C)n2)ncn1 [ASAP-0000106] | -4.644% | inhibition at 50 µM (SARS-CoV-2 nsp3-mac1 [2]; read-out: perc_inhibition_mean, batch_name=ASAP-0000106-001): -4.64%
COc1ccccc1CN(C[C@@H]1CCCO1)c1ncnc2[nH]ccc12 [ASAP-0000107] | 4.74% | inhibition at 50 µM (SARS-CoV-2 nsp3-mac1 [2]; read-out: perc_inhibition_mean, batch_name=ASAP-0000107-001): 4.74%
Cc1cccc([C@@H]2CCCN2c2ncnc3[nH]ccc23)n1 [ASAP-0000108] | 0.182% | inhibition at 50 µM (SARS-CoV-2 nsp3-mac1 [2]; read-out: perc_inhibition_mean, batch_name=ASAP-0000108-001): 0.182%
CC(=O)Nc1ccc(S(=O)(=O)NNc2ncnc3sccc23)cc1 [ASAP-0000109] | 5.363% | inhibition at 50 µM (SARS-CoV-2 nsp3-mac1 [2]; read-out: perc_inhibition_mean, batch_name=ASAP-0000109-001): 5.36%
Cc1cccc(Cl)c1-n1sc(=O)n(CC2CC2)c1=O [ASAP-0000110] | 51.933% | inhibition at 50 µM (SARS-CoV-2 nsp3-mac1 [2]; read-out: perc_inhibition_mean, batch_name=ASAP-0000110-001): 51.9%
COc1cc(OC)cc(C(=O)N(CCC(=O)N2CCNCC2)Cc2cccc(Cl)c2)c1 [ASAP-0000111] | -4.529% | inhibition at 50 µM (SARS-CoV-2 nsp3-mac1 [2]; read-out: perc_inhibition_mean, batch_name=ASAP-0000111-001): -4.53%
CN(c1ncnc2[nH]ccc12)[C@H]1CCN(S(C)(=O)=O)C1 [ASAP-0000112] | -0.371% | inhibition at 50 µM (SARS-CoV-2 nsp3-mac1 [2]; read-out: perc_inhibition_mean, batch_name=ASAP-0000112-001): -0.371%
Cc1nn(C)c(NCc2nc(CO)cs2)c1C#N [ASAP-0000113] | 2.1% | inhibition at 50 µM (SARS-CoV-2 nsp3-mac1 [2]; read-out: perc_inhibition_mean, batch_name=ASAP-0000113-001): 2.1%
O=C(CCCc1cccnc1)Nc1cnc2[nH]ncc2c1 [ASAP-0000114] | -3.651% | inhibition at 50 µM (SARS-CoV-2 nsp3-mac1 [2]; read-out: perc_inhibition_mean, batch_name=ASAP-0000114-001): -3.65%
CNC(=O)c1ccnc(NC(=O)c2ccc(N3CCOCC3)cc2)c1 [ASAP-0000115] | -12.336% | inhibition at 50 µM (SARS-CoV-2 nsp3-mac1 [2]; read-out: perc_inhibition_mean, batch_name=ASAP-0000115-001): -12.3%
Cc1noc(CCCNC(=O)c2ncnc3[nH]ccc23)n1 [ASAP-0000116] | -5.133% | inhibition at 50 µM (SARS-CoV-2 nsp3-mac1 [2]; read-out: perc_inhibition_mean, batch_name=ASAP-0000116-001): -5.13%
COCc1cc(CNc2nc3[nH]cnc3c(=O)[nH]2)on1 [ASAP-0000117] | 2.984% | inhibition at 50 µM (SARS-CoV-2 nsp3-mac1 [2]; read-out: perc_inhibition_mean, batch_name=ASAP-0000117-001): 2.98%
Cc1cc(NCc2cnc3c(c2)NC(=O)CO3)cnc1C [ASAP-0000118] | 4.531% | inhibition at 50 µM (SARS-CoV-2 nsp3-mac1 [2]; read-out: perc_inhibition_mean, batch_name=ASAP-0000118-001): 4.53%
Cn1ncc2ncnc(NCc3ncccc3O)c21 [ASAP-0000119] | -2.547% | inhibition at 50 µM (SARS-CoV-2 nsp3-mac1 [2]; read-out: perc_inhibition_mean, batch_name=ASAP-0000119-001): -2.55%
O=C(OCc1ncccc1Cl)c1ncnc2[nH]ccc12 [ASAP-0000120] | 5.063% | inhibition at 50 µM (SARS-CoV-2 nsp3-mac1 [2]; read-out: perc_inhibition_mean, batch_name=ASAP-0000120-001): 5.06%
CC(C)n1ncnc1CNc1cc2c(=O)nc[nH]c2cn1 [ASAP-0000121] | -1.486% | inhibition at 50 µM (SARS-CoV-2 nsp3-mac1 [2]; read-out: perc_inhibition_mean, batch_name=ASAP-0000121-001): -1.49%
Cc1cncc(NCc2csc(-c3ccccn3)n2)c1 [ASAP-0000122] | -5.024% | inhibition at 50 µM (SARS-CoV-2 nsp3-mac1 [2]; read-out: perc_inhibition_mean, batch_name=ASAP-0000122-001): -5.02%
c1ccc(-c2nc(CNc3cccnc3)cs2)nc1 [ASAP-0000123] | -9.865% | inhibition at 50 µM (SARS-CoV-2 nsp3-mac1 [2]; read-out: perc_inhibition_mean, batch_name=ASAP-0000123-001): -9.87%
